Reference: US20240350456A1, “COMPOSITIONS AND METHODS FOR DIAGNOSING AND TREATING INFLAMMATORY CONDITIONS” (RUTGERS, THE STATE UNIVERSITY OF NEW JERSEY, priority 2023, published 2024)
Entries after “also recorded” stand apart in the source; their conditions may differ.

How the values were obtained:
[1] = test system: human-derived Caco-2 cells; experiment: In vitro transwell screening in Caco-2 cells, barrier disrupted by Clostridium difficile toxin (TEER and FITC-dextran permeability); type: cell-based; details: applied in the basolateral compartment, TOX
[2] = test system: C57BL/6 mice with DSS-induced mild colitis; experiment: DSS induced mild colitis treatment with LGG metabolites (2.5% DSS); type: in vivo, mouse; details: metabolite i.p. twice
Procedure: FIG. 13A-13M. IPA requires Ocln to alleviate LPS-induced leaky epithelium. FIG. 13A, experimental design. Organoids were derived from tamoxifen-inducible, intestine-specific Ocln-knockout (KO) mice generated by crossing a floxed Ocln^fl/fl with Villin-CreERT2 mice. FIG. 13B, Representative images and FIG. 13C, quantitative analysis of permeability assay. LPS was added to CCM media (basolateral side) with and without IPA […] and IAM (200 μM) (n=3 mice). *** P<0.001, compared with WT control, †P<0.05 compared with KO-control. FIG. 13D, Representative images of immunofluorescent staining of Ocln in WT control and Ocln KO conventional mice, L=lumen. MNA improves but ASA exacerbates dextran sodium sulfate (DSS)-induced leaky gut. FIG. 13E, experimental design, evaluation in vivo of metabolites (Met). Methylnicotinamide (MNA. […]) and L-argininosuccinate (ASA. 3.6 mg/kg) were administered (i.p.) twice 1-day before and 3 days after DSS treatment p.o. 4 kDa fluorescein isothiocyanate (FITC)-dextran was gavaged 4 h before sacrifice. FIG. 13F, body weight of DSS-treated mice with and without metabolites, FIG. 13G, representative images of Ocln-stained colon sections (green; left panel) and ECad (red; middle). Merged images (yellow; right panel) depict Ocln location in TJ of MNA-treated but not in DSS-only and ASA-treated colon (arrows). Quantitative fluorescent intensity of Ocln (FIG. 13H) and ECad (FIG. 13I) in the TJ, relative to DSS only controls. FIG. 13J, DSS scoring. FIG. 13K, representative H&E images of DSS, DSS+ MNA and DSS+ASA colon sections. FIG. 13L, In vivo permeability as determined by fluorescent intensity of FITC in serum. FIG. 13M, Serum level of interleukin-6.
DSS induced mild colitis treatment with LGG metabolites. To assess in vivo impact of metabolites on gut barrier function, conventional C57BL/6 mice (8 weeks of age) were administered with 2.5% dextran sodium sulfate (DSS) in drinking water to induce mild colitis. Animals were intraperitoneal injected with either PBS vehicle, 30 mg/kg methylnicotinamide chloride, or 3.6 mg/kg argininosuccinic acid dissolved in sterile PBS at Day-1 and Day 4 of the experiment. Body weight was recorded daily. At Day 7, 4 hours before sacrifice and collection of blood, animals were gavaged with 600 mg/kg with 4 kDa FITC-dextran. Blood was collected in 5% EDTA and subsequently centrifuged at 3000 g for 5 minutes for plasma collection. FITC readings were collected by diluting 25 μl of plasma in 75 μl of PBS and analyzed using a Glomax (Promega, GMMTE9032) with Ex490/Em510-570 filter cube module. Serum concentration of interleukin-6 (Cat. No. Biolegend 431304) was also determined. Ileum and colon sections were collected, fixed in 4% paraformaldehyde, processed for embedding in paraffin wax. Pathohistology of intestine was observed by routine H&E staining.

Structure (SMILES) | TEER, indole metabolites [1] | E-cad abundance and localization in colonic epithelial cells [2] | Ocln expression in colonic epithelium [2] | pathology score (epithelial cell disruption and immune cell infiltration) [2] | DSS-induced leaky gut (overall) ([2]; listed as MNA) | serum IL-6 level ([2]; listed as MNA)
NC(=O)Cc1c[nH]c2ccccc12 [Indole-3-acetamide, indole-3-acetamide] | more effective when applied in this compartment than in the luminal | – | – | – | – | –
C[n+]1cccc(C(N)=O)c1 [Methylnicotinamide, 1-methynicotinamide] | – | significantly increased | significantly elevated Ocln expression | improved pathology score | sealed the leaky gut; also recorded: improves | decreased; also recorded: reduced serum proinflammatory IL-6 levels
